Measured values from patent publication US9206188B2, “Substituted pyrrolo[2,3-b]pyridines as ITK and JAK inhibitors” (Arrien Pharmaceuticals LLC, priority 2013, dated 2015).

What was measured:
[1] = biological target: ITK (Homo sapiens (Human), UniProt Q08881); assay: ITK kinase assay (radiometric filter binding, 10 μM ATP); format: biochemical; settings: 10-dose IC50 mode, 10 μM ATP; read-out: ITK kinase inhibition
Description: (§1) All additions were done on ice, followed by the addition of ATP mix. Wells were uniformly mixed using an Eppendorff plate shaker and incubated at 30° C. for 20 min, and stopped by the addition of 5 μL of 3% phosphoric acid. Volume was increased to 100 μL by adding 0.8% phosphoric acid which was then transferred to PC filter mats (Millipore), pre-equilibrated with 70% ethanol and water. Plates were washed thrice with 100 μL 0.8% phosphoric acid and dried for an hour at 60° C. 100 μL scintillation fluid was added into each well and reading taken in Perkin Elmer TOPCOUNT beta counter.
(§2) The reactions were carried out at 10 μM ATP for ITK, JAK3 and other TEC and Janus family of kinase.

[2] = biological target: JAK3 (Homo sapiens (Human), UniProt P52333); assay: JAK3 kinase assay (radiometric filter binding, 10 μM ATP); format: biochemical; settings: 10-dose IC50 mode, 10 μM ATP; read-out: JAK3 kinase inhibition
Sequence of JAK3 (P52333 whole entry): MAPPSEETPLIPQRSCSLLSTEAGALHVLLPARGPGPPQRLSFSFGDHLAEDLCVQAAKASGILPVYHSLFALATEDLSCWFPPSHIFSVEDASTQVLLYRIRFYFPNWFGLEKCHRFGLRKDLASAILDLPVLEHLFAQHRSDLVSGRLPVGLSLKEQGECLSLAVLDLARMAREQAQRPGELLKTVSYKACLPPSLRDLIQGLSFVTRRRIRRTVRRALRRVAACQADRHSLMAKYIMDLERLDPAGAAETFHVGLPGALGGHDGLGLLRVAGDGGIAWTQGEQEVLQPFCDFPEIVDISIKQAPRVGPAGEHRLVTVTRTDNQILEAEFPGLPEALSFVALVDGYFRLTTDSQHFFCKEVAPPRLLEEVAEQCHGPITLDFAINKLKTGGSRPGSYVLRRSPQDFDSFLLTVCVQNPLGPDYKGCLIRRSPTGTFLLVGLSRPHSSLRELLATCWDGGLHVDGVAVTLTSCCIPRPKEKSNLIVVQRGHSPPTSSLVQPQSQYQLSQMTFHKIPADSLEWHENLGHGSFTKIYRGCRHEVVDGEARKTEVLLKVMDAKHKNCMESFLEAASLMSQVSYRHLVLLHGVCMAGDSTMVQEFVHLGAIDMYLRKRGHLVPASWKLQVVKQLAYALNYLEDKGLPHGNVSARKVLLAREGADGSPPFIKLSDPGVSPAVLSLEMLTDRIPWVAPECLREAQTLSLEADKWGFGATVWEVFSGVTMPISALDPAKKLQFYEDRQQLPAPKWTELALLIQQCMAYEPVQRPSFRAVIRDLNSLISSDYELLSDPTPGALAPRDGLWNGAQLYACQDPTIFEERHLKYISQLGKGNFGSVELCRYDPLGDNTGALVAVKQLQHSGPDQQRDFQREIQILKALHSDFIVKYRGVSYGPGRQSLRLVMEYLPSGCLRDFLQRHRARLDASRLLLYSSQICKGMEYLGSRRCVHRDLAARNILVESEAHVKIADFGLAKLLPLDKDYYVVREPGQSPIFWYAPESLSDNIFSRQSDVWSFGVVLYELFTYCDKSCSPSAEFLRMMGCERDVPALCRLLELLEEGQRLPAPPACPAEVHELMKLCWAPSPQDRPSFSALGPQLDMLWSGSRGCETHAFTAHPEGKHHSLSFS
Description: as §1, §2

Sequence of ITK (Q08881 whole entry): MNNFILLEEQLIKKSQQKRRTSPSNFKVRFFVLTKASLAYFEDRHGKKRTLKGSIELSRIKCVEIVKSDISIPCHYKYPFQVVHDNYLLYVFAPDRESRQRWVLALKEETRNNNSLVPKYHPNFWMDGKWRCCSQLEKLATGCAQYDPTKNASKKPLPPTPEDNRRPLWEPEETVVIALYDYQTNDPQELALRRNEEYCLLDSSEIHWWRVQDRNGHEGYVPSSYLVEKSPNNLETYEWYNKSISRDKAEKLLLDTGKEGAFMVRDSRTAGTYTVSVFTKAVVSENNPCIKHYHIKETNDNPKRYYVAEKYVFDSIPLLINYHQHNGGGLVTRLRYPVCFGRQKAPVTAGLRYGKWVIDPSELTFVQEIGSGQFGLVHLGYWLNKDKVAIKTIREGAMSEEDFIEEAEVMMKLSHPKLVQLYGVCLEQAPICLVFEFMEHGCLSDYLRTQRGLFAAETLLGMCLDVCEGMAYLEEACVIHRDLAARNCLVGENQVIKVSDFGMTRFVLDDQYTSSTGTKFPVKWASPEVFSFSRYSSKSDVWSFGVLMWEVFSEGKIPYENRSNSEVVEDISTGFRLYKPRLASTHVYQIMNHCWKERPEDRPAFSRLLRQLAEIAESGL

| SMILES | IC50 [1] [nM] | IC50 [2] [nM] |
| --- | --- | --- |
| CCC#CC(=O)Nc1cccc(-c2cnc3[nH]cc(-c4cccc(S(=O)(=O)N(C)C(C)(C)C)c4)c3n2)c1 [Example 96, N-(3-(7-(3-(N-(tert-butyl)-N-methylsulfamoyl)phenyl)-5H-pyrrolo[2,3-b]pyrazin-2-yl)phenyl)pent-2-ynamide] | > 100 | > 100 |
| C#CC(=O)Nc1cccc(-c2cnc3[nH]cc(-c4cc(F)cc(F)c4OC)c3c2)c1 [Example 98, N-(3-(3-(3,5-difluoro-2-methoxyphenyl)-1H-pyrrolo[2,3-b]pyridin-5-yl)phenyl)propiolamide] | > 100 | > 100 |
| COc1cc(F)c(C)cc1-c1c[nH]c2ncc(-c3cccc(NC(=O)/C=C/CN(C)C)c3)cc12 [Example 138, (E)-4-(dimethylamino)-N-(3-(3-(4-fluoro-2-methoxy-5-methylphenyl)-1H-pyrrolo[2,3-b]pyridin-5-yl)phenyl)but-2-enamide] | > 100 | > 100 |
| C=CC(=O)Nc1cccc(-c2cnc3[nH]cc(-c4cc(C)c(F)cc4OC)c3c2)c1 [Example 140, N-(3-(3-(4-fluoro-2-methoxy-5-methylphenyl)-1H-pyrrolo[2,3-b]pyridin-5-yl)phenyl)acrylamide] | > 1000 | > 100 |
| COc1c(F)cc(F)cc1-c1c[nH]c2ncc(-c3cccc(NC(=O)/C(C)=C/C(C)(C)C)c3)cc12 [Example 158, (E)-N-(3-(3-(3,5-difluoro-2-methoxyphenyl)-1H-pyrrolo[2,3-b]pyridin-5-yl)phenyl)-2,4,4-trimethylpent-2-enamide] | < 100 | < 100 |
| C=CC(=O)Nc1cc(F)cc(-c2cnc3[nH]cc(-c4cc(F)cc(F)c4OC)c3c2)c1C [Example 168, N-(3-(3-(3,5-difluoro-2-methoxyphenyl)-1H-pyrrolo[2,3-b]pyridin-5-yl)-5-fluoro-2-methylphenyl)acrylamide] | < 100 | < 100 |

Results, then the molecule that gave them:

| IC50 [1] [nM] | IC50 [2] [nM] | SMILES |
| --- | --- | --- |
| > 100 | > 100 | COc1c(F)cc(F)cc1-c1c[nH]c2ncc(-c3cc(NC(=O)/C=C/CN(C)C)ccc3F)cc12 [Example 133, (E)-N-(3-(3-(3,5-difluoro-2-methoxyphenyl)-1H-pyrrolo[2,3-b]pyridin-5-yl)-4-fluorophenyl)-4-(dimethylamino)but-2-enamide] |
| > 100 | > 100 | Cc1cccc(-c2c[nH]c3ncc(-c4cccc(NC(=O)/C=C/CN(C)C)c4)cc23)c1F [Example 145, (E)-4-(dimethylamino)-N-(3-(3-(2-fluoro-3-methylphenyl)-1H-pyrrolo[2,3-b]pyridin-5-yl)phenyl)but-2-enamide] |
| > 100 | > 100 | Cc1c[nH]c2ncc(-c3cccc(NC(=O)/C=C/CN(C)C)c3)cc12 [Example 152, (E)-4-(dimethylamino)-N-(3-(3-methyl-1H-pyrrolo[2,3-b]pyridin-5-yl)phenyl)but-2-enamide] |
| > 100 | < 100 | CN(C)C/C=C/C(=O)Nc1cccc(-c2cnc3[nH]cc(Cl)c3c2)c1 [Example 153, (E)-N-(3-(3-chloro-1H-pyrrolo[2,3-b]pyridin-5-yl)phenyl)-4-(dimethylamino)but-2-enamide] |
| < 100 | < 100 | COc1c(F)cc(F)cc1-c1c[nH]c2ncc(-c3cc(F)cc(NC(=O)/C=C/CN(C)C)c3C)cc12 [Example 169, (E)-N-(3-(3-(3,5-difluoro-2-methoxyphenyl)-1H-pyrrolo[2,3-b]pyridin-5-yl)-5-fluoro-2-methylphenyl)-4-(dimethylamino)but-2-enamide] |
| < 100 | < 100 | COc1c(F)cc(F)cc1-c1c[nH]c2ncc(-c3cc(F)cc(NC(=O)/C(C)=C/C(C)(C)C)c3C)cc12 [Example 170, (E)-N-(3-(3-(3,5-difluoro-2-methoxyphenyl)-1H-pyrrolo[2,3-b]pyridin-5-yl)-5-fluoro-2-methylphenyl)-2,4,4-trimethylpent-2-enamide] |
